Among the data in patent US6683103B2, “Sulfonamides for treatment of endothelin-mediated disorders” (Texas Biotechnology Corporation, priority 1997, dated 2004) are IC50 values, retold here.

Like-named read-outs stand apart in the source and are kept apart here.

For test [1], the target named is T1, human ETB receptor (Homo sapiens, UniProt P24530).
T1 construct: expressed in transfected cells; host or cells: COS7 cells
T1 sequence (P24530 27-442): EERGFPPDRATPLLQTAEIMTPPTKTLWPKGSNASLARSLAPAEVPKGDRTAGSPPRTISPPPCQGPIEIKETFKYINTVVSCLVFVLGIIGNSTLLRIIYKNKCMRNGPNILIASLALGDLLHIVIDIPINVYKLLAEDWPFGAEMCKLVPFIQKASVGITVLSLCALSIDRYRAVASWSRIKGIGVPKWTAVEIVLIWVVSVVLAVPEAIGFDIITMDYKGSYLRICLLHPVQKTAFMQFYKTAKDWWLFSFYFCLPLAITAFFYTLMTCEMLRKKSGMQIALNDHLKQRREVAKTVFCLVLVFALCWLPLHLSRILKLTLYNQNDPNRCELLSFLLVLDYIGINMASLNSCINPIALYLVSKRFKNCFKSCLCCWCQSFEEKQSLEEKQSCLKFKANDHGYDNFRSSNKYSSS
As to the kind of experiment: Binding Test #2: inhibition of 125I-ET-1 binding to ETB receptors (transfected COS7 cell membranes). The method, boiled down: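 Competition with 125I-ET-1 for binding to membranes from COS7 cells transfected with human ETB receptor, used at 1 μg/50 μl binding buffer. Membranes prepared in HEPES pH 7.4 with aprotinin, including a DNase/MnCl2 step at 37 °C for 30 min.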

The target of test [2] is T2, human ETA receptors (Homo sapiens, UniProt P25101).
T2 construct: endogenous in cells; host or cells: TE 671 cells (ATCC HTB 139)
T2 sequence (P25101 21-427): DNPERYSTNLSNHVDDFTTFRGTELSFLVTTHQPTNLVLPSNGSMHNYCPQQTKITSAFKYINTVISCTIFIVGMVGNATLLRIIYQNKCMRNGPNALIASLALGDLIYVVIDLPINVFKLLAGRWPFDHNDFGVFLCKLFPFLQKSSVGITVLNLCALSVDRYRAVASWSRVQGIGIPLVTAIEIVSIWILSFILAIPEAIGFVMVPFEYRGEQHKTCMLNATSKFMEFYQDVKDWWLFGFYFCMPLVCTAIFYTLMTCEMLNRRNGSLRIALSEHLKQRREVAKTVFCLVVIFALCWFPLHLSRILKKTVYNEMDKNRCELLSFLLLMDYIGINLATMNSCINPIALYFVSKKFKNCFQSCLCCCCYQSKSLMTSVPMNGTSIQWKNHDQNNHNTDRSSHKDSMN
Nature of the test: Binding Test #1: inhibition of 125I-ET-1 binding to ETA receptors (TE 671 cell membranes). Conditions: read-out: ETA. The method, boiled down: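 Radioligand competition in triplicate: ¹²⁵I-endothelin-1 displaced by test compound (1 nM–100 μM final) from ETA-bearing TE 671 cell membranes in HEPES pH 7.4 binding buffer with NaCl, MgCl2 and bacitracin. Incubation 16–18 h at 4 °C (or at 24 °C); 80 nM ET-1 defines nonspecific binding; pellet radioactivity gives percent inhibition.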

The mark [3] stands for this setting: Table 1, † incubation at 24° C., read-out: ETB.
The mark [4] stands for this setting: Table 1, † incubation at 24° C.
Setting [5] is: Table 1, incubation at 4° C., read-out: ETB.
Setting [6] is: Table 2, incubation at 4° C., read-out: ETB.

In the case of `Cc1noc(NS(=O)(=O)c2ccsc2COc2ccc3c(c2)OCO3)c1Br` [N-(4-bromo-3-methyl-5-isoxazolyl)-2-{[3,4-(methylenedioxy)phenoxy]methyl}thiophene-3-sulfonamide], the IC50 was 6610 nM in test [1] (setting [3]) and 302 nM in test [2] (setting [4]).
On the same counts, the results for `Cc1ccc(/C=C/c2cc(-c3ccc(C)cc3)sc2S(=O)(=O)Nc2onc(C)c2Br)cc1` [N-(4-bromo-3-methyl-5-isoxazolyl)-3-(4-methyl-trans-styryl)-5-(4-tolyl)thiophene-2-sulfonamide] are 1580 nM and 6900 nM.
In the case of `Cc1ccc(Cc2cc(-c3ccc(C)cc3)sc2S(=O)(=O)Nc2onc(C)c2Br)cc1` [N-(4-bromo-3-methyl-5-isoxazolyl)-3-(4-methylbenzyl)-5-(4-tolyl)thiophene-2-sulfonamide], the values for the IC50 in test [1] (setting [3]) and in test [2] (setting [4]) were 1560 nM and 4690 nM, respectively.
Regarding `Cc1ccc(CCc2cc(-c3ccc(C)cc3)sc2S(=O)(=O)Nc2onc(C)c2Br)cc1` [N-(4-bromo-3-methyl-5-isoxazolyl)-3-(4-methylphenethyl)-5-(4-tolyl)thiophene-2-sulfonamide], the results for the IC50 in test [1] (setting [3]) and in test [2] (setting [4]) were 2090 nM and 6100 nM, respectively.
Turning to `Cc1noc(NS(=O)(=O)c2sccc2CCc2ccccc2)c1Br` [N-(4-bromo-3-methyl-5-isoxazolyl)-3-(phenethyl)thiophene-2-sulfonamide], the IC50 turned out to be 10800 nM in test [1] (setting [5]); 37200 nM in test [1] (setting [3]); 160 nM in test [2] (Table 1, incubation at 4° C.); 676 nM in test [2] (setting [4]).
`Cc1noc(NS(=O)(=O)c2sccc2Sc2ccccc2)c1Br` [N-(4-bromo-3-methyl-5-isoxazolyl)-3-(phenylthio)thiophene-2-sulfonamide]: the IC50 is 3680 nM in test [1] (setting [3]) and 80.1 nM in test [2] (setting [4]).
On the same counts, the results for `Cc1noc(NS(=O)(=O)c2sccc2CC=Cc2cc3c(cc2CO)OCO3)c1Br` [N-(4-bromo-3-methyl-5-isoxazolyl)-3-[2-(hydroxymethyl)-4,5-(methylenedioxy)cinnamyl]thiophene-2-sulfonamide] are 3240 nM and 79.5 nM.
For the molecule `Cc1cc2c(cc1C=CCc1ccsc1S(=O)(=O)Nc1onc(C)c1Br)OCO2` [N-(4-bromo-3-methyl-5-isoxazolyl)-3-[2-methyl-4,5-(methylenedioxy)cinnamyl]thiophene-2-sulfonamide], the IC50 in test [1] (setting [3]) was about 6000 nM; in test [2] (setting [4]), about 100 nM.
The corresponding values for `Cc1cc2c(cc1CCc1ccsc1S(=O)(=O)Nc1onc(C)c1Br)OCO2` [N-(4-bromo-3-methyl-5-isoxazolyl)-3-[2-methyl-4,5-(methylenedioxy)phenethyl]thiophene-2-sulfonamide] are about 5000 nM and about 100 nM.
On the same counts, the results for `Cc1noc(NS(=O)(=O)c2sccc2/C=C/c2ccc3c(c2)OCO3)c1Br` [N-(4-bromo-3-methyl-5-isoxazolyl)-3-[3,4-(methylenedioxy)-trans-styryl]thiophene-2-sulfonamide] are 10000 nM and 218 nM.
Regarding `Cc1noc(NS(=O)(=O)c2sccc2CCc2ccc3c(c2)OCO3)c1Br` [N-(4-bromo-3-methyl-5-isoxazolyl)-3-[3,4-(methylenedioxy)phenethyl]thiophene-2-sulfonamide], the IC50 in test [1] (setting [3]) was 18000 nM; in test [2] (setting [4]) it was 236 nM.
`Cc1noc(NS(=O)(=O)c2sccc2-c2ccc3c(c2)OCO3)c1Br` [N-(4-bromo-3-methyl-5-isoxazolyl)-3-[(3,4-methylenedioxy)phenyl]thiophene-2-sulfonamide]: the results for the IC50 in test [1] (setting [3]) and in test [2] (setting [4]) were 79000 nM and 500 nM, respectively.
For `Cc1noc(NS(=O)(=O)c2cccc(-c3ccccc3)c2)c1Br` [N-(4-bromo-3-methyl-5-isoxazolyl)-3-biphenylsulfonamide], the IC50 in test [1] (setting [6]) was 760 nM; in test [1] (read-out: IC50 for ETB receptors) it was about 760 nM; in test [2] (Table 2, incubation at 4° C.), about 30 nM.
Turning to `Cc1ccsc1S(=O)(=O)Nc1onc(C)c1Br` [N-(4-bromo-3-methyl-5-isoxazolyl)-3-methylthiophene-2-sulfonamide], the IC50 was determined as 7150 nM in test [1] (setting [5]) and 651 nM in test [2] (Table 1, incubation at 4° C.).
On the same counts, the results for `Cc1noc(NS(=O)(=O)c2sccc2Oc2ccccc2)c1Br` [N-(4-bromo-3-methyl-5-isoxazolyl)-3-phenoxythiophene-2-sulfonamide] are 3460 nM and 103 nM.
The corresponding values for `Cc1noc(NS(=O)(=O)c2sccc2-c2ccccc2)c1Br` [N-(4-bromo-3-methyl-5-isoxazolyl)-3-phenylthiophene-2-sulfonamide] are 11100 nM and 54.7 nM.
Turning to `Cc1noc(NS(=O)(=O)c2sccc2CC=Cc2cc3c(cc2COC2CCCCO2)OCO3)c1Br` (stereo not drawn) [N-(4-bromo-3-methyl-5-isoxazolyl)-3-{2-[(tetrahydro-4H-pyran-2-ylxoy)methyl]-4,5-(methylenedioxy)cinnamyl}thiophene-2-sulfonamide], the IC50 stood at 4140 nM in test [1] (setting [5]) and 96.7 nM in test [2] (setting [4]).
With `CCCc1cc2c(cc1OCc1ccsc1S(=O)(=O)Nc1onc(C)c1Br)OCO2` [N-(4-bromo-3-methyl-5-isoxazolyl)-3-{[2-propyl-4,5-(methylenedioxy)phenoxy]methyl}thiophene-2-sulfonamide], the results for the IC50 in test [1] (setting [3]) and in test [2] (setting [4]) were 1500 nM and about 200 nM, respectively.
For the molecule `CCCc1ccc(-c2csc(S(=O)(=O)Nc3onc(C)c3Br)c2)cc1` [N-(4-bromo-3-methyl-5-isoxazolyl)-4-(4-propylphenyl)thiophene-2-sulfonamide], the values for the IC50 in test [1] (setting [3]) and in test [2] (setting [4]) were 435 nM and 962 nM, respectively.
Turning to `Cc1noc(NS(=O)(=O)c2cc(-c3ccc(C(C)C)cc3)cs2)c1Br` [N-(4-bromo-3-methyl-5-isoxazolyl)-4-(4′-isopropylphenyl))thiophene-2-sulfonamide], the IC50 in test [1] (setting [5]) was 1300 nM; in test [2] (Table 1, incubation at 4° C.), 5500 nM.
As for `Cc1noc(NS(=O)(=O)c2cc(CCc3ccccc3)cs2)c1Br` [N-(4-bromo-3-methyl-5-isoxazolyl)-4-(phenethyl)thiophene-2-sulfonamide], the IC50 turned out to be 3970 nM in test [1] (setting [5]) and 6640 nM in test [2] (Table 1, incubation at 4° C.).
For `Cc1noc(NS(=O)(=O)c2ccc(-c3ccccc3)cc2)c1Br` [N-(4-bromo-3-methyl-5-isoxazolyl)-4-biphenylsulfonamide], the IC50 in test [1] (setting [6]) was about 170 nM; in test [1] (Table 2, † incubation at 24° C., read-out: ETB), 1230 nM; in test [2] (Table 2, incubation at 4° C.), 3300 nM; in test [2] (Table 2, † incubation at 24° C.), 49000 nM.
Take `Cc1noc(NS(=O)(=O)c2cc(-c3ccccc3)cs2)c1Br` [N-(4-bromo-3-methyl-5-isoxazolyl)-4-phenylthiophene-2-sulfonamide]: the IC50 in test [1] (setting [5]) was determined as 1170 nM; in test [2] (Table 1, incubation at 4° C.) it was 224 nM.
As to `Cc1noc(NS(=O)(=O)c2ccc(-c3cccc4ccccc34)s2)c1Br` [N-(4-bromo-3-methyl-5-isoxazolyl)-5-(1-naphthyl)thiophene-2-sulfonamide], the IC50 in test [1] (setting [3]) was determined as 1400 nM; in test [2] (setting [4]) it was 14000 nM.
The corresponding values for `CCCC#Cc1ccc(S(=O)(=O)Nc2onc(C)c2Br)s1` [N-(4-bromo-3-methyl-5-isoxazolyl)-5-(1-pentynyl)thiophene-2-sulfonamide] are 5600 nM and 29000 nM.
Turning to `COc1ccccc1-c1ccc(S(=O)(=O)Nc2onc(C)c2Br)s1` [N-(4-bromo-3-methyl-5-isoxazolyl)-5-(2-methoxyphenyl)thiophene-2-sulfonamide], the IC50 in test [1] (setting [5]) is 1100 nM; in test [2] (Table 1, incubation at 4° C.), 381 nM.
